Data: PMC7533037, “Purification, structural analysis, and stability of antioxidant peptides from purple wheat bran” (BMC Chemistry, 2020)
Residues, ends and D or L forms follow the SMILES beside them. No end group written: not given here.

What was measured:
[1] = Temperature stability of antioxidant activity; format: physicochemical; details: compared with the three other peptides; read-out superoxide scavenging and TEAC
Protocol: The antioxidant activities of purple wheat bran antioxidant peptides at different passivation temperatures for 60 min were studied. The detection method of antioxidant activities was shown in 2.4. Before the antioxidant activities were measured, the samples allowed to cool to room temperature (25 °C) and pH was adjusted to 7.0.
(§1) Peptides 2 and 4 synthesized in this study might be better antioxidants than the other peptides because of their high resistance to superoxide anion radical and high TEACs (Fig. 5) (P < 0.05). The peptide concentrations for the determination of superoxide anion radical scavenging activity and TEAC in the stability study (3.5 and 3.6) were chosen to be 1.0 and 0.5 mg/mL, respectively, according to the experimental results.

pepsin = assay: In vitro digestion stability, pepsin; format: in vitro ADME; details: simulated gastrointestinal digestion, compared with before digestion, peptide 0.5 mg/mL (TEAC), 1.0 mg/mL (superoxide), n = 3
Excerpt: (§2) According to the main components of human gastrointestinal digestive juice and digestive environment, a human gastrointestinal digestion simulation system was established to study the antioxidant activity changes of peptides after digestion by human gastrointestinal digestion simulation system. The method was according to the previously reported by Jang et al..
as §1

trypsin = assay: In vitro digestion stability, trypsin; format: in vitro ADME; details: simulated gastrointestinal digestion, compared with before digestion, peptide 0.5 mg/mL (TEAC), 1.0 mg/mL (superoxide), n = 3
Excerpt: as §2, §1

chymotrypsin = assay: In vitro digestion stability, chymotrypsin; format: in vitro ADME; details: simulated gastrointestinal digestion, individually or continuously, compared with before digestion, peptide 0.5 mg/mL (TEAC), 1.0 mg/mL (superoxide), n = 3
Excerpt: as §2, §1

[2] = Superoxide anion radical scavenging activity assay (pyrogallol autoxidation method); format: biochemical; details: synthesized peptides, Tris-HCl pH 8.3, 320 nm, n = 3
Protocol: Superoxide anion radical scavenging activity assay was measured using the pyrogallol autoxidation method with some modifications. Mix 1.6 mL of sample with an equal volume of 50 mM Tris–HCl buffer (pH 8.3). The mixture was incubated in a bath for 20 min, then 0.8 mL of 1.5 mM pyrogallic acid was added. Absorbance of the mixture was measured at 320 nm every 30 s for 5 min. For blank, 1.6 mL of Tris–HCl buffer was used instead of sample. Ascorbic acid and GSH were used as positive controls. Superoxide anion radical scavenging activity was calculated as: O2-clearancerate%=1-ΔODS/ΔODb×100%, Where,ΔODSandΔODb represented slope of absorbance line for sample and slope of absorbance line for blank.

[3] = Trolox equivalent antioxidant capacity (TEAC), ABTS radical scavenging; format: biochemical; details: synthesized peptides; PBS pH 7.4, 30 °C, 30 min, 734 nm; n = 3
Protocol: The experiment referred to methods of Costa and Xing and made appropriate modifications. This method used Trolox as the standard antioxidant and all reagents were prepared in 50 mmol/L phosphate buffered solution (pH 7.4). The specific operation was as follows: PBS (50 µL) solution (blank group), different concentrations of Trolox solution (standard control group) and sample solution to be tested (sample group) were added to a transparent 96-well microplate, and then 150 µL ABTS^+· was quickly added. The solution was shaken at 30 °C for 30 min and its absorbance was measured at 734 nm using a microplate scanning spectrophotometer (Multiskan FC, Thermo Fisher Scientific (Shanghai), China). ABTS radical scavenging activity was calculated as ABTS+·clearancerate%=1-ASample/ABlank×100

## C[C@H](NC(=O)[C@@H](N)CCC(N)=O)C(=O)N[C@@H](CS)C(=O)O [peptide 2, Gln-Ala-Cys] (H-Gln-Ala-Cys-OH)
[1]
  temperature stability (overall): better temperature stability
pepsin
  TEAC and superoxide anion radical scavenging activity after digestion by pepsin: remained at the same levels
trypsin
  TEAC and superoxide anion radical scavenging activity after digestion by trypsin: remained at the same levels
chymotrypsin
  TEAC and superoxide anion radical scavenging activity after digestion by chymotrypsin: remained at the same levels

## N=C(N)NCCC[C@H](N)C(=O)N[C@@H](CC(N)=O)C(=O)N[C@@H](Cc1ccccc1)C(=O)O [peptide 3, Arg-Asn-Phe] (H-Arg-Asn-Phe-OH)
pepsin
  TEAC and superoxide anion radical scavenging activity after digestion by pepsin: insignificant changes
trypsin
  TEAC and superoxide anion radical scavenging activity after digestion by trypsin: significantly declined
chymotrypsin
  TEAC and superoxide anion radical scavenging activity after digestion by chymotrypsin: significant reduction

## N[C@@H](CO)C(=O)N[C@@H](CO)C(=O)N[C@@H](CS)C(=O)O [peptide 4, Ser-Ser-Cys] (H-Ser-Ser-Cys-OH)
[1]
  temperature stability (overall): better temperature stability
pepsin
  TEAC and superoxide anion radical scavenging activity after digestion by pepsin: remained at the same levels
trypsin
  TEAC and superoxide anion radical scavenging activity after digestion by trypsin: remained at the same levels
chymotrypsin
  TEAC and superoxide anion radical scavenging activity after digestion by chymotrypsin: remained at the same levels

## N[C@@H](Cc1c[nH]c2ccccc12)C(=O)N[C@@H](Cc1ccccc1)C(=O)O [peptide 5, Trp-Phe] (H-Trp-Phe-OH)
pepsin
  TEAC and superoxide anion radical scavenging activity after digestion by pepsin: insignificant changes
chymotrypsin
  TEAC and superoxide anion radical scavenging activity after digestion by chymotrypsin: significant reduction

## CGFPGHC (cysteine pairing not given here) [peptide 1, antioxidant peptide identified in F4-4 of purple wheat bran protein hydrolysate, synthesized by Fmoc solid phase method]
[2]
  IC50, superoxide anion radical scavenging: 2898 µg/mL
[3]
  IC50, TEAC (ABTS radical scavenging): 763 µg/mL
pepsin
  TEAC and superoxide anion radical scavenging activity after digestion by pepsin: insignificant changes
chymotrypsin
  TEAC and superoxide anion radical scavenging activity after digestion by chymotrypsin: significant reduction
